Measurements as given in ChEMBL document CHEMBL5523671, “ω-(5-Phenyl-2H-tetrazol-2-yl)alkyl-substituted glycine amides and related compounds as inhibitors of the amine oxidase vascular adhesion protein-1 (VAP-1)” (Bioorg Med Chem, 2024).

Assays:
[1] = biological target: T1, VAP-1 (amine oxidase [copper-containing] 3) (Bos taurus, UniProt Q9TTK6); assay: Stability of compound assessed as bovine plasma VAP-1 mediated drug degradation by measuring parent compound remaining at 10 uM incubated for 120 mins by HPLC-MS analysis; type: ADME, cell-free; conditions: cattle, bovine plasma VAP-1 (amine oxidase [copper-containing] 3), read-out: Stability
T1 sequence (Q9TTK6 whole entry): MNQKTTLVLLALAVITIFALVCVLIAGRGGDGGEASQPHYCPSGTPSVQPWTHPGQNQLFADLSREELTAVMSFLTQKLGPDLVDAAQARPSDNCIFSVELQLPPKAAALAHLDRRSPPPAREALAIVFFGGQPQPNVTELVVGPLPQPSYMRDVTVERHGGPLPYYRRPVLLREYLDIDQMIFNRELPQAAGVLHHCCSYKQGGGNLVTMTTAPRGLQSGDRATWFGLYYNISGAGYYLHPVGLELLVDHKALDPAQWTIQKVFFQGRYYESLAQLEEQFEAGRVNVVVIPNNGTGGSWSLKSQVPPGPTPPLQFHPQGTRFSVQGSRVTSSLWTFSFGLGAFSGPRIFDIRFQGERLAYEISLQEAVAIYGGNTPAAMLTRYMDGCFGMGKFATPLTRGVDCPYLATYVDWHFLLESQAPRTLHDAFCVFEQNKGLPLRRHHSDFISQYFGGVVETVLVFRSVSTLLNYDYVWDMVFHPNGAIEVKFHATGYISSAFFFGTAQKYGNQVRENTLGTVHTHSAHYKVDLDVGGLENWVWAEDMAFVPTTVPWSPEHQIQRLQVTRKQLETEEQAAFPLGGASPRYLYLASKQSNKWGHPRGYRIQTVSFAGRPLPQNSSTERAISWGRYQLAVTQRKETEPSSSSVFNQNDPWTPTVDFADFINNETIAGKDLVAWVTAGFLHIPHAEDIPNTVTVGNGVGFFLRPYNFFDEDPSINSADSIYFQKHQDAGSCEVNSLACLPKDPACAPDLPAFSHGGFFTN

[2] = biological target: T1, VAP-1 (amine oxidase [copper-containing] 3); assay: Stability of compound assessed as bovine plasma VAP-1 mediated drug degradation by measuring parent compound remaining at 10 uM incubated for 30 mins by HPLC-MS analysis; type: ADME, cell-free; conditions: cattle, bovine plasma VAP-1 (amine oxidase [copper-containing] 3), read-out: Stability
[3] = biological target: Amine oxidase [copper-containing] 1 (diamine oxidase, Sus scrofa) (UniProt Q9TRC7); assay: Inhibition of porcine kidney DAO using 6-(5-phenyltetrazol-2-yl)hexan-1-amine as substrate at 10 uM preincubated with enzyme for 15 mins followed by substrate addition measured after 30 mins by UV-HPLC analysis relative to control; conditions: time 45.0 min
Amine oxidase [copper-containing] 1 (diamine oxidase, Sus scrofa), sequence (Q9TRC7 whole entry, looked up): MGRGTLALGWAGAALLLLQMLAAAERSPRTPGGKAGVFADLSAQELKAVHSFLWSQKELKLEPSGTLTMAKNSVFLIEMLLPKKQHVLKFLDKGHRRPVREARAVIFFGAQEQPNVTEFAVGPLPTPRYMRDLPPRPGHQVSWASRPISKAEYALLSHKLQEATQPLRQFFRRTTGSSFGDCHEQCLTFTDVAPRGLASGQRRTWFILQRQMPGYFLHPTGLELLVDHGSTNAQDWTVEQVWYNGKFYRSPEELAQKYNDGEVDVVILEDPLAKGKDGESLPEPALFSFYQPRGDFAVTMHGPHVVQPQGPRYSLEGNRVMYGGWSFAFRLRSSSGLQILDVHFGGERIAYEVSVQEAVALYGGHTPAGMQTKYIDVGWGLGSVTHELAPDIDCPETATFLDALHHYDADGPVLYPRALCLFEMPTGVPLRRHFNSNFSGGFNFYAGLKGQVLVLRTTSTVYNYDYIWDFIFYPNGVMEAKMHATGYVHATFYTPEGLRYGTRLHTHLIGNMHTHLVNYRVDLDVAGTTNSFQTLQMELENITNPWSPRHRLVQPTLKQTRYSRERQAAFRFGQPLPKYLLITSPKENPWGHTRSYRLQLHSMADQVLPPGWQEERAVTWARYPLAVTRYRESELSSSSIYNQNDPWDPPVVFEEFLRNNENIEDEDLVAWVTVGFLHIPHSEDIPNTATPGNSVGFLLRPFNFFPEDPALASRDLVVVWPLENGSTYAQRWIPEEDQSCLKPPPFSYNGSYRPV

[4] = biological target: T1, VAP-1 (amine oxidase [copper-containing] 3); assay: Stability of compound assessed as bovine plasma VAP-1 mediated drug degradation by measuring parent compound remaining at 10 uM incubated for 15 mins by HPLC-MS analysis; type: ADME, cell-free; conditions: cattle, bovine plasma VAP-1 (amine oxidase [copper-containing] 3), read-out: Stability
[5] = biological target: T2, Amine oxidase [copper-containing] 3 (Bos taurus, UniProt Q9TTK6); assay: Stability of compound assessed as bovine plasma VAP-1 mediated drug degradation by measuring formation of aldehyde metabolite at 1 to 10 uM incubated for 60 to 120 mins by HPLC-MS analysis; type: ADME, cell-free; conditions: cattle, dose lower 1 µM, time lower 60 min, dose upper 10 µM, time upper 120 min
T2 sequence (Q9TTK6 whole entry): T1 sequence (Q9TTK6 whole entry)

[6] = biological target: T1, VAP-1 (amine oxidase [copper-containing] 3); assay: Stability of compound assessed as bovine plasma VAP-1 mediated drug degradation by measuring parent compound remaining at 10 uM incubated for 60 mins by HPLC-MS analysis; type: ADME, cell-free; conditions: cattle, bovine plasma VAP-1 (amine oxidase [copper-containing] 3), read-out: Stability
[7] = biological target: T3, Amine oxidase [copper-containing] 3 (Homo sapiens) (UniProt Q16853); assay: Inhibition of human plasma VAP-1 using 6-(5-Pheny1-2H-tetrazol-2-yl)hexan-1-amine as substrate at 100 uM preincubated with enzyme for 15 mins followed by substrate addition measured after 120 mins by UV-HPLC analysis relative to control; type: cell-free; conditions: time 135.0 min
T3 sequence (whole entry): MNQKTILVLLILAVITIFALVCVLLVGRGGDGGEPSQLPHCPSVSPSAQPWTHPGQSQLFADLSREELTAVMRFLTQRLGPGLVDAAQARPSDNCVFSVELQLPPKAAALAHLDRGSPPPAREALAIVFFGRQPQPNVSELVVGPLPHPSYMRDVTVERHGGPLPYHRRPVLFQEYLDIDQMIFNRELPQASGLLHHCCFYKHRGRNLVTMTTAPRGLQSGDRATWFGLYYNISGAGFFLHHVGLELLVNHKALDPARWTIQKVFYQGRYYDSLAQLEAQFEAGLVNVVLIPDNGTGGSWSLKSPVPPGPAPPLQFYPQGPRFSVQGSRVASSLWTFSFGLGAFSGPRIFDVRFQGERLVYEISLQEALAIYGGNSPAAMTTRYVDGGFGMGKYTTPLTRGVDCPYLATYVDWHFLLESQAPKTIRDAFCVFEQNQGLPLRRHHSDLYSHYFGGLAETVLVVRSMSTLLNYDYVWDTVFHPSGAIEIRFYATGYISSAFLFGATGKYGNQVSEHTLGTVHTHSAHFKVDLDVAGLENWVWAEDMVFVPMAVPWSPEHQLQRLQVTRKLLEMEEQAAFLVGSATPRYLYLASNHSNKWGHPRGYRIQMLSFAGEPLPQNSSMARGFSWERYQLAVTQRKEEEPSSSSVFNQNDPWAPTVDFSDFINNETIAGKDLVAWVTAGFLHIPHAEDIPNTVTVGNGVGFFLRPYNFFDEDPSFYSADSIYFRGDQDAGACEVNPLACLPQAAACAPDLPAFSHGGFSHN

[8] = biological target: T4, Amine oxidase [copper-containing] 3 (Homo sapiens, UniProt Q16853); assay: Inhibition of human plasma VAP-1 using 6-(5-Pheny1-2H-tetrazol-2-yl)hexan-1-amine as substrate preincubated with enzyme for 15 mins followed by substrate addition measured after 120 mins by UV-HPLC analysis; type: cell-free
T4 sequence (Q16853 whole entry): T3 sequence (whole entry)

[9] = biological target: T3, Amine oxidase [copper-containing] 3 (Homo sapiens); assay: Inhibition of human plasma VAP-1 using 6-(5-Pheny1-2H-tetrazol-2-yl)hexan-1-amine as substrate at 10 uM preincubated with enzyme for 15 mins followed by substrate addition measured after 120 mins by UV-HPLC analysis relative to control; type: cell-free; conditions: time 135.0 min
[10] = Selectivity index, ratio of IC50 for human plasma VAP-1 to IC50 for bovine plasma VAP-1

| SMILES | remaining at 2 h, 10 µM [1] [%] | remaining at 0.5 h, 10 µM [2] [%] | inhibition [3] [%] | remaining at 0.25 h, 10 µM [4] [%] | Stability [5] | remaining at 1 h, 10 µM [6] [%] | inhibition [7] [%] | IC50 [8] [µM] | inhibition [9] [%] | Ratio IC50 [10] |
| --- | --- | --- | --- | --- | --- | --- | --- | --- | --- | --- |
| NCC(=O)NCc1cccc(-c2ccccc2)c1 | 23 | 85 | 39 | 92 | Unstable | 66 | – | – | – | – |
| NCC(=O)NCCCCCCn1nnc(-c2ccccc2)n1 | < 5 | 58 | – | 80 | Unstable | – | 23 | > 100 | – | – |
| N#Cc1ccc(-c2nnn(CCCCCCNC(=O)CN)n2)cc1 | 29 | 79 | – | 85 | Unstable | – | – | 32 | 17 | 2 |
